Laboratory results: article PMC12064818, “A general assay platform to study protein pharmacology using ligand-dependent structural dynamics” (Nature Communications, 2025)

Key:
[1] = biological target: T1, endogenous DHFR-C-HiBiT in HEK293 cell lysate (Homo sapiens, UniProt P00374); experiment: SDR assay, cellular lysate from DHFR C-terminus HiBiT gene edited HEK293 cells; type: binding
T1 construct: from a mammalian cellular lysate containing an endogenous α-peptide tagged protein, obtained using CRISPR/Cas9-mediated homologous recombination; host or cells: HEK293 constitutively expressing S. pyogenes Cas9, CRISPR/HDR-edited monoclonal line; NP-40 lysate used at 1:100
T1 sequence (P00374 1-187): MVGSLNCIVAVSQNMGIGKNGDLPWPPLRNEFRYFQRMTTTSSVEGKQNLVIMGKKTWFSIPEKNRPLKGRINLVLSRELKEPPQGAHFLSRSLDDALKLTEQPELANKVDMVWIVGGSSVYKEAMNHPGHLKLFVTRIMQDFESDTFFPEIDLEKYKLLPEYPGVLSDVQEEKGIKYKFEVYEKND
From the text: A HEK293 cell line constitutively expressing S. pyogenes Cas9 (GeneCopoeia, Cat # SL553) was used to generate the C-terminal edit of the DHFR gene (DHFR-C-HiBiT) applying general methodology previously described[24],[52],[53]. The DHFR 3’-gene sequence surrounding the stop codon (underlined), […] […], used to generate the CRISPR-Cas9 crRNA sequence, […], was accomplished with IDT software (Custom Alt-R CRISPR-Cas9 guide RNA).
For lysate preparation, the DHFR-C-HiBiT gene edited HEK293 monoclonal cell line was grown in a T75 flask (DMEM, 10% FBS, 1% P/S) to confluence. […] The cell pellet was lysed by adding 500 μL ice-cold NP-40 lysis buffer (ThermoFisher Scientific, Cat # FNN0021) containing 5 µL 100x protease inhibitor cocktail in DMSO (Sigma Aldrich, Cat # P8340-1mL) incubated on a rocker at 4 °C for 1 h (protected from light), centrifuged at 15,000 g for 10 min at 4 °C, after which supernatant was transferred to a 1.5 mL Eppendorf tube, and frozen at −80 °C.
Protein-HiBiT targets were expressed and purified to various levels of homogeneity and optimized at indicated concentrations, not necessarily the lowest possible concentrations, to produce consistent luminescence with statistically significant signal above no protein background control in target specific assay buffer (see Supplementary Table 11). Four μL/well buffer control (column 1) and NLuc or HiBiT tagged proteins (columns 2-48) were dispensed into 1536-well Greiner Bio-One white, high solid base, medium bind plates with a BioRaptr 2. Compounds and controls were added to the microtiter plates as described in Supplementary Data 8, then incubated and protected from light for 30 min at ambient temperature. A modified dispensing protocol was developed for aqueous ligands that were unable to be transferred by pintool (see Supplementary Table 10 aqueous ligand dispense section). The substrate solution was prepared according to manufacturer’s protocol where ω-fragment (LgBiT) was added at 1:100 dilution and NLuc substrate (furimazine) was prepared at 1:50 dilution in Nano-Glo HiBiT lytic buffer (Promega, Cat # N3040). This substrate solution, 3 μL/well, was added with a BioRaptr 2 and assay plates were protected from light and incubated for 10 min at ambient temperature. NLuc luminescence was measured on a ViewLux CCD plate reader with optimized reader settings to each protein target (see Supplementary Tables 10, 11 and Supplementary Fig. 14 for additional details).

DHFR-C-HiBiT [2] = biological target: T2, DHFR-C-HiBiT (Homo sapiens, UniProt P00374); experiment: SDR assay, purified DHFR-C-HiBiT; conditions: SDR assay using DHFR-C-HiBiT (0.5 nM)
T2 sequence (P00374 2-187): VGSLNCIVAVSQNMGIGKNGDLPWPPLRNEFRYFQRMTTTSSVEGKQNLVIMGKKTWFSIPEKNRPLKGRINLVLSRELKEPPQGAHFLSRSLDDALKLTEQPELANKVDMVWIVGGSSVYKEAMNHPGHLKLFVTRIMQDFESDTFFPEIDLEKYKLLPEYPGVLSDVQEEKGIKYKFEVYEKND

DHFR-C-HiBiT [3] = biological target: T2, DHFR-C-HiBiT; experiment: Dihydrofolate reductase enzymatic absorbance assay; type: biochemical; design: His10 (C); made in house; host or cells: E. coli; conditions: functional DHFR-C-HiBiT assay (100 nM, 75 mM NADPH)
Procedure: To accommodate consistent compound addition used in this study, DHFR enzymatic activity[72],[73] was measured in a 1536-well miniaturized assay adapted from the Sigma-Aldrich dihydrofolate reductase assay (Cat # CS0340). […] Compounds and controls were added as above to each plate as described in Supplementary Data 8. DHFR-C-HiBiT was incubated with compounds for 20 min at ambient temperature. […] Then 2 µL of dihydrofolate (DHF, Sigma-Aldrich, Cat # D7006) substrate, freshly prepared according to manufacturer’s protocol and diluted in 1X assay kit buffer, was dispensed into each microplate well with a BioRaptr 2 for a final assay DHF concentration of 100 μM. […] See Supplementary Table 9 for additional details.
Supplementary Table 9. Protocol for Dihydrofolate reductase (DHFR) enzymatic absorbance […]
Supplementary Table 9: Protocol for Dihydrofolate reductase (DHFR) enzym atic absorbance assay Sequence Param eter ValueDescription
No enzym e control (colum n 1) and enzym e solution (100 nM DHFR-C-HiBiT final assay […]
(Aurora), dispensed with BioRaptr 2 […]
com pounds transferred to respective colum ns with Pintool
2b Test Com pounds 23 nLfinal concentration range) in colum ns 5-48; com pounds transferred to respective wells with […]
3 Incubation 20 m inIncubate enzym e + com pounds at am bient tem p for 20 m in, protected from light 5 Reagent 2 µLSubstrate solution; dihydrofolic acid (100 µM final concentration) in 1X assay buffer; dispensed with BioRaptr 2
6 Incubation 10 m inAm bient tem perature, protected from light
Dihydrofolic acid substrate solution: 1X assay buffer (Sigm a-Aldrich, Cat # A5603); 300 µM dihydrofolic acid (100 µM 5 final) (Sigm a-Aldrich, Cat # D7006) prepared fresh according to m anufacturer’s protocol. Solution filtered through 0.22 µm syringe filter prior to dispense.

CN(Cc1cnc2nc(N)nc(N)c2n1)c1ccc(C(=O)NC(CC(F)C(=O)O)C(=O)O)cc1 (stereo not shown) [g-fluoromethotrexate]
pSDR50 (lysate + 1 mM NADPH), Mean ([1]; 1:100 lysate (~0.2 nM) with 1 mM NADPH): 9.1 | pSDR50 (lysate), Mean ([1]; 1:100 lysate (~0.2 nM) without added NADPH): 7.8 | pSDR50 (DHFR-C-HiBiT), Mean (DHFR-C-HiBiT [2]): 8.70 | pIC50 (DHFR Enz Assay), Mean (DHFR-C-HiBiT [3]): 6.55
